In the supplement of paper PMC10307832:

compound: CC1=C(N=C(N=C1N)[C@H](CC(=O)N)NC[C@@H](C(=O)N)N)C(=O)N[C@@H]([C@H](C2=CN=CN2)OC3C(C(C(C(O3)CO)O)O)OC4C(C(C(C(O4)CO)O)OC(=O)N)O)C(=O)N[C@H](C)[C@H]([C@H](C)C(=O)N[C@@H]([C@@H](C)O)C(=O)NCCC5=NC(=CS5)C6=NC(=CS6)C(=O)NCCC[S+](C)C)O [Bleomycin] + CC(=O)c1c(C)c2cnc(Nc3ccc(N4CCNCC4)cn3)nc2n(C2CCCC2)c1=O [Palbociclib] (partner 0.5 µM); test: relative viability (nuclei count vs DMSO), 5 days (fraction); higher = more cells survive; details: first compound 0.01 µM; main component drawn
Method in brief: (§1)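 Lung cancer cell lines were pin-tool dosed in 1536-well plates on the day after seeding, with either a lone drug or a fixed anchor-drug dose plus five library-drug doses (not always all listed) in √10 steps. Nuclei were counted on 4× images after 5 days. Relative viability is the ratio of treated-well to vehicle-well nuclei counts, with each value a median of duplicate plates.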

Cell Line | relative viability
NCI-H3122 | 0.198
HOP-62 | 0.249
HCC-44 | 0.861
SW 900 | 0.502
LU99A | 0.329
BEN | 0.482
HARA | 0.219
HCC-78 | 0.522
NCI-H441 | 0.182
LCLC-97TM1 | 0.154
NCI-H2009 | 0.202
A-427 | 0.458
NCI-H460 | 0.0989
NCI-H727 | 0.346
NCI-H1734 | 0.29

same assay, conditions: first compound 0.03162 µM; main component drawn

Cell Line | relative viability
NCI-H3122 | 0.186
HOP-62 | 0.259
HCC-44 | 0.821
SW 900 | 0.503
LU99A | 0.405
BEN | 0.473
HARA | 0.291
HCC-78 | 0.533
NCI-H441 | 0.203
LCLC-97TM1 | 0.211
NCI-H2009 | 0.164
A-427 | 0.453
NCI-H460 | 0.126
NCI-H727 | 0.721
NCI-H1734 | 0.245

same assay, conditions: first compound 0.1 µM; main component drawn

Cell Line | relative viability
NCI-H3122 | 0.18
HOP-62 | 0.285
HCC-44 | 0.64
SW 900 | 0.355
LU99A | 0.286
BEN | 0.452
HARA | 0.252
HCC-78 | 0.412
NCI-H441 | 0.185
LCLC-97TM1 | 0.157
NCI-H2009 | 0.215
A-427 | 0.447
NCI-H460 | 0.0546
NCI-H727 | 0.654
NCI-H1734 | 0.27

same assay, conditions: first compound 0.3162 µM; main component drawn

Cell Line | relative viability
NCI-H3122 | 0.132
HOP-62 | 0.167
HCC-44 | 0.455
SW 900 | 0.214
LU99A | 0.167
BEN | 0.444
HARA | 0.188
HCC-78 | 0.4
NCI-H441 | 0.153
LCLC-97TM1 | 0.112
NCI-H2009 | 0.16
A-427 | 0.276
NCI-H460 | 0.0357
NCI-H727 | 0.526
NCI-H1734 | 0.207

same assay, conditions: first compound 1 µM; main component drawn

Cell Line | relative viability
NCI-H3122 | 0.148
HOP-62 | 0.125
HCC-44 | 0.382
SW 900 | 0.222
LU99A | 0.126
BEN | 0.408
HARA | 0.197
HCC-78 | 0.463
NCI-H441 | 0.17
LCLC-97TM1 | 0.101
NCI-H2009 | 0.192
A-427 | 0.256
NCI-H460 | 0.0284
NCI-H727 | 0.636
NCI-H1734 | 0.172

compound: CC1=C(N=C(N=C1N)[C@H](CC(=O)N)NC[C@@H](C(=O)N)N)C(=O)N[C@@H]([C@H](C2=CN=CN2)OC3C(C(C(C(O3)CO)O)O)OC4C(C(C(C(O4)CO)O)OC(=O)N)O)C(=O)N[C@H](C)[C@H]([C@H](C)C(=O)N[C@@H]([C@@H](C)O)C(=O)NCCC5=NC(=CS5)C6=NC(=CS6)C(=O)NCCC[S+](C)C)O [Bleomycin] + COc1cccc2cc(-c3nc([C@H]4CC[C@H](C(=O)O)CC4)n4ncnc(N)c34)[nH]c12 [OSI-027] (partner 0.5 µM); test: as above; details: first compound 0.01 µM; main component drawn
Method in brief: as §1

Cell Line | relative viability
NCI-H3122 | 0.917
HOP-62 | 0.383
HCC-44 | 0.279
SW 900 | 0.428
LU99A | 0.253
BEN | 0.284
HARA | 0.401
HCC-78 | 0.38
NCI-H441 | 0.404
LCLC-97TM1 | 0.444
NCI-H2009 | 0.606
A-427 | 0.332
NCI-H460 | 0.373
NCI-H727 | 0.731
NCI-H1734 | 0.565

same assay, conditions: first compound 0.03162 µM; main component drawn

Cell Line | relative viability
NCI-H3122 | 1.03
HOP-62 | 0.498
HCC-44 | 0.38
SW 900 | 0.336
LU99A | 0.289
BEN | 0.299
HARA | 0.505
HCC-78 | 0.348
NCI-H441 | 0.735
LCLC-97TM1 | 0.403
NCI-H2009 | 0.609
A-427 | 0.439
NCI-H460 | 0.334
NCI-H727 | 0.685
NCI-H1734 | 0.544

same assay, conditions: first compound 0.1 µM; main component drawn

Cell Line | relative viability
NCI-H3122 | 0.76
HOP-62 | 0.333
HCC-44 | 0.248
SW 900 | 0.425
LU99A | 0.259
BEN | 0.286
HARA | 0.454
HCC-78 | 0.309
NCI-H441 | 0.534
LCLC-97TM1 | 0.177
NCI-H2009 | 0.637
A-427 | 0.34
NCI-H460 | 0.165
NCI-H727 | 0.637
NCI-H1734 | 0.465

same assay, conditions: first compound 0.3162 µM; main component drawn

Cell Line | relative viability
NCI-H3122 | 0.262
HOP-62 | 0.184
HCC-44 | 0.205
SW 900 | 0.15
LU99A | 0.234
BEN | 0.243
HARA | 0.3
HCC-78 | 0.311
NCI-H441 | 0.383
LCLC-97TM1 | 0.196
NCI-H2009 | 0.501
A-427 | 0.187
NCI-H460 | 0.038
NCI-H1734 | 0.254

same assay, conditions: first compound 1 µM; main component drawn

Cell Line | relative viability
NCI-H3122 | 0.261
HOP-62 | 0.127
HCC-44 | 0.175
SW 900 | 0.134
LU99A | 0.161
BEN | 0.288
HARA | 0.176
HCC-78 | 0.29
NCI-H441 | 0.283
LCLC-97TM1 | 0.108
NCI-H2009 | 0.41
A-427 | 0.144
NCI-H460 | 0.0308
NCI-H727 | 0.528
NCI-H1734 | 0.226

compound: CC1=C(N=C(N=C1N)[C@H](CC(=O)N)NC[C@@H](C(=O)N)N)C(=O)N[C@@H]([C@H](C2=CN=CN2)OC3C(C(C(C(O3)CO)O)O)OC4C(C(C(C(O4)CO)O)OC(=O)N)O)C(=O)N[C@H](C)[C@H]([C@H](C)C(=O)N[C@@H]([C@@H](C)O)C(=O)NCCC5=NC(=CS5)C6=NC(=CS6)C(=O)NCCC[S+](C)C)O [Bleomycin] + N=C(N)NC(=N)NCCc1ccccc1 [Phenformin] (partner 250 µM); test: as above; details: first compound 0.01 µM; main component drawn
Method in brief: as §1

Cell Line | relative viability
NCI-H3122 | 0.341
HOP-62 | 0.395
HCC-44 | 0.104
SW 900 | 0.592
LU99A | 0.636
BEN | 0.247
HARA | 0.432
HCC-78 | 0.573
NCI-H441 | 0.782
LCLC-97TM1 | 0.337
NCI-H2009 | 0.474
A-427 | 0.253
NCI-H460 | 0.287
NCI-H727 | 0.65
NCI-H1734 | 0.327

same assay, conditions: first compound 0.03162 µM; main component drawn

Cell Line | relative viability
NCI-H3122 | 0.379
HOP-62 | 0.447
HCC-44 | 0.0979
SW 900 | 0.447
LU99A | 0.827
BEN | 0.277
HARA | 0.503
HCC-78 | 0.74
NCI-H441 | 0.906
LCLC-97TM1 | 0.401
NCI-H2009 | 0.512
A-427 | 0.349
NCI-H460 | 0.275
NCI-H727 | 0.621
NCI-H1734 | 0.28

same assay, conditions: first compound 0.1 µM; main component drawn

Cell Line | relative viability
NCI-H3122 | 0.5
HOP-62 | 0.239
HCC-44 | 0.075
SW 900 | 0.335
LU99A | 0.673
BEN | 0.251
HARA | 0.493
HCC-78 | 0.581
NCI-H441 | 0.807
LCLC-97TM1 | 0.241
NCI-H2009 | 0.489
A-427 | 0.269
NCI-H460 | 0.124
NCI-H727 | 0.469
NCI-H1734 | 0.28

same assay, conditions: first compound 0.3162 µM; main component drawn

Cell Line | relative viability
NCI-H3122 | 0.194
HOP-62 | 0.185
HCC-44 | 0.0859
SW 900 | 0.11
LU99A | 0.33
BEN | 0.24
HARA | 0.361
HCC-78 | 0.321
NCI-H441 | 0.376
LCLC-97TM1 | 0.192
NCI-H2009 | 0.403
A-427 | 0.175
NCI-H460 | 0.0345
NCI-H1734 | 0.177

same assay, conditions: first compound 1 µM; main component drawn

Cell Line | relative viability
NCI-H3122 | 0.198
HOP-62 | 0.105
HCC-44 | 0.0579
SW 900 | 0.16
LU99A | 0.159
BEN | 0.235
HARA | 0.178
HCC-78 | 0.403
NCI-H441 | 0.292
LCLC-97TM1 | 0.173
NCI-H2009 | 0.383
A-427 | 0.113
NCI-H460 | 0.0288
NCI-H727 | 0.502
NCI-H1734 | 0.131

compound: COc1cc([C@@H]2c3cc4c(cc3[C@@H](O[C@@H]3O[C@@H]5CO[C@@H](C)O[C@H]5[C@H](O)[C@H]3O)[C@H]3COC(=O)[C@H]23)OCO4)cc(OC)c1O [Etoposide] + N=C(N)NC(=N)NCCc1ccccc1 [Phenformin] (partner 250 µM); test: as above; details: first compound 0.01 µM
Method in brief: as §1

Cell Line | relative viability
NCI-H3122 | 0.351
HOP-62 | 0.71
HCC-44 | 0.215
SW 900 | 0.359
LU99A | 0.898
BEN | 0.249
HARA | 0.507
HCC-78 | 0.708
NCI-H441 | 0.835
LCLC-97TM1 | 0.454
NCI-H2009 | 0.492
A-427 | 0.362
NCI-H460 | 0.476
NCI-H727 | 0.556
NCI-H1734 | 0.366

same assay, conditions: first compound 0.03162 µM

Cell Line | relative viability
NCI-H3122 | 0.382
HOP-62 | 0.795
HCC-44 | 0.156
SW 900 | 0.618
LU99A | 0.992
BEN | 0.266
HARA | 0.407
HCC-78 | 0.824
NCI-H441 | 0.976
LCLC-97TM1 | 0.487
NCI-H2009 | 0.505
A-427 | 0.317
NCI-H460 | 0.492
NCI-H727 | 0.664
NCI-H1734 | 0.468

same assay, conditions: first compound 0.1 µM

Cell Line | relative viability
NCI-H3122 | 0.377
HOP-62 | 0.578
HCC-44 | 0.134
SW 900 | 0.459
LU99A | 0.589
HARA | 0.504
HCC-78 | 0.582
NCI-H441 | 0.587
LCLC-97TM1 | 0.439
NCI-H2009 | 0.492
A-427 | 0.258
NCI-H460 | 0.352
NCI-H1734 | 0.324

same assay, conditions: first compound 0.3162 µM

Cell Line | relative viability
NCI-H3122 | 0.281
HOP-62 | 0.475
HCC-44 | 0.198
SW 900 | 0.322
LU99A | 0.579
BEN | 0.264
HARA | 0.366
HCC-78 | 0.499
NCI-H441 | 0.275
LCLC-97TM1 | 0.328
NCI-H2009 | 0.416
A-427 | 0.213
NCI-H460 | 0.0419
NCI-H727 | 0.531
NCI-H1734 | 0.37

same assay, conditions: first compound 1 µM

Cell Line | relative viability
NCI-H3122 | 0.197
HOP-62 | 0.276
HCC-44 | 0.112
SW 900 | 0.16
LU99A | 0.16
BEN | 0.289
HARA | 0.178
HCC-78 | 0.226
NCI-H441 | 0.198
LCLC-97TM1 | 0.184
NCI-H2009 | 0.342
A-427 | 0.143
NCI-H460 | 0.0382
NCI-H727 | 0.437
NCI-H1734 | 0.233
